Source: patent publication US20030181401A1, “Insulin secretion promoter” (KYOWA HAKKO KOGYO CO., LTD., priority 2002, published 2003)
Values joined by “and” are separate entries in the source; they are usually repeats but may differ in a detail not shown here. Equal values may be shown once.

Key:
Format in all cases: in vivo
[1] = tested on: ICR mice; experiment: Test Example 2: serum insulin in glucose tolerance test after 7-day oral dosing, normal mice
Procedure: Eleven male 9-week-old ICR mice as normal mice (SLC, Inc.) were fed a commercially available CE-2 (Clea Japan, Inc.) for one week, so as to accustom the mice to the environment.
After acclimation, an aqueous 10% solution of 2′-fucosyllactose was orally administered to the mice at 200 mg (2′-FL)/kg body weight in the morning and at 300 mg (2′-FL)/kg body weight in the evening. The same volume of saline was administered to the control group. The aqueous 2′-FL solution and saline were both dosed daily to the mice for 7 days.
During the dosing period, CE-2 was given together with drinking water ad libitum. […]
After the reaction, the plate was rinsed four times with the rinse solution. […] The absorbance of the reaction solution in the wells at 450 nm was read with a plate reader. Herein, a standard curve was prepared by using the standard insulin solution (mice, 200 ng/ml) attached to the kit as a standard solution to dilute the standard solution appropriately with the buffer solution attached to the kit for the same reaction as for the serum, and plotting the relation between the concentration and the absorbance (450 nm). Based on the prepared standard curve and the absorbance from the reaction with the serum, the insulin concentration in the serum was determined.

[2] = tested on: ICR mice; experiment: Test Example 8: blood glucose in glucose tolerance test after single oral 2′-FL dose
Procedure: Groups of male 8-week-old ICR mice (Japan SLC, Inc.) each consisting of 6 mice were fed CE-2 (Clea Japan, Inc.) for one week, so as to accustom the animals to the environment.
Then, the mice accustomed were fasted for 18 hours. An aqueous 2% solution of 2′-FL was orally administered to the mice to 100 mg (2′-FL)/kg body weight, while 0.9% saline was administered orally to the control group. Two hours after the 2′-FL dosing, an aqueous 40% glucose solution was orally administered to 2 g (glucose)/kg body weight to the mice, for glucose tolerance test. […] Blood glucose was assayed with a simple-type blood glucose assay apparatus Medisafe Reader GR-101 (Terumo, Co., Ltd.), while the serum was collected.

[3] = tested on: STZ-induced diabetic rats (Wistar); experiment: Test Example 9: serum insulin in glucose tolerance test, Type I diabetes mellitus model
Procedure: Male 7-week-old Wistar rats (Japan SLC, Inc.) were fed CE-2 (Clea Japan, Inc.) for one week, so as to accustom the rats to the environment.
After 18-hour starvation of the accustomed rats, […] of 50 mM citrate buffer, pH 4.5containing 15 mg of streptozotocin (WAKO Pure Chemical Industries, Inc.; abbreviated as “STZ” hereinafter) was prepared and administered to 25 mg (STZ)/kg body weight from their tail vein. Five days after the STZ administration, the rats were fasted for 18 hours. Blood was taken from puncture in the tail vein to assay blood glucose with a simple-type blood glucose assay apparatus Medisafe Reader GR-101 (Terumo, Co., Ltd.), to select 5 rats (Nos. 1, 3, 4, 5, 8) at mild state of diabetes mellitus with a blood glucose level of 200 mg/dl or less.
An aqueous 2% solution of 2′-fucosyllactose was prepared and administered to the rat No. 1 from the tail vein to 50 mg/kg body weight on a 2′-FL dose basis. 0.9% physiological saline was administered to rats Nos. 3, 4, 5 and 8. […] Zero minute and 30, 60, 120, and 240 minutes after glucose loading, blood was taken from a tail vein, to assay blood glucose with Medisafe Reader GR-101 and collect the serum.
12 days after the STZ dosing, the rats were fasted for 18 hours. […] Zero minute and 30, 60, 120, and 240 minutes after glucose loading, blood was taken from a tail vein, to assay blood glucose with Medisafe Reader GR-101 and collect the serum.
Insulin in the serum was assayed by enzyme immunoassay using Morinaga ultra-sensitive rat insulin assay kit (Morinaga Biochemical Research Institute, Co., Ltd.) in the same manner as in Test Example 8. Additionally, a standard curve was prepared by diluting […] of the standard insulin (rat) attached to the kit with 100 μl of saline to use the resulting 25.6 ng/ml insulin solution as the standard solution, diluting the standard solution appropriately with the diluent attached to the kit for the same reaction as for the serum, and plotting the relation between the concentration and the absorbance at the principal wave length of 450 nm and at the sub wave length of 655 nm. […]

Substance: 2′-fucosyllactose [2′-FL]
- insulin concentration 120 minutes after glucose loading compared with the control group (in words) ([1]; continuous daily oral dosing): increased
- Serum insulin concentration after glucose loading, 120 minutes ([1]; oral 200 + 300 mg/kg daily, 7 days, glucose 2 g/kg oral, 120 minutes, mean ± SD): 0.35 ± 0.24 ng/mL
- Blood glucose level after glucose loading, 0 minute ([2]; ICR mice fasted 18 hours, 100 mg/kg single oral dose two hours before glucose 2 g/kg oral, 0 minute, mean ± SD): 109 ± 4.4 mg/dL
- Blood glucose level after glucose loading, 60 minutes ([2]; ICR mice fasted 18 hours, 100 mg/kg single oral dose two hours before glucose 2 g/kg oral, 60 minutes, mean ± SD): 219 ± 29 mg/dL
- Blood glucose level after glucose loading, 120 minutes ([2]; ICR mice fasted 18 hours, 100 mg/kg single oral dose two hours before glucose 2 g/kg oral, 120 minutes, mean ± SD): 147 ± 14.2 mg/dL
- Blood glucose level after glucose loading, −120 minutes ([2]; ICR mice fasted 18 hours, 100 mg/kg single oral dose two hours before glucose 2 g/kg oral, −120 minutes, mean ± SD): 131 ± 23.6 mg/dL
- elevation of blood glucose level (in words) ([2]; ICR mice, single oral dosing 120 minutes before glucose dosing): suppressed
- serum insulin concentration via glucose loading (in words) ([3]; STZ-induced diabetic rats, glucose loading 2 hours after intravenous dosing): increased
- Serum insulin concentration, 0 minute ([3]; individual STZ rats Nos. 1, 3, 4, 5, 8, 50 mg/kg intravenous two hours before glucose 1 g/kg oral, 0 minute after glucose loading, 50 mg/kg): 125.8 pg/mL and 697.0 pg/mL and 197.4 pg/mL and 180.4 pg/mL and 312.5 pg/mL
- Serum insulin concentration, 30 minutes ([3]; individual STZ rats Nos. 1, 3, 4, 5, 8, 50 mg/kg intravenous two hours before glucose 1 g/kg oral, 30 minutes after glucose loading, 50 mg/kg): 331.1 pg/mL and 586.6 pg/mL and 915.1 pg/mL and 475.5 pg/mL and 148.4 pg/mL
